Measurements published in patent US10165772B2, “Methods and compounds for increasing red blood cell survival” (priority 2008, dated 2019).

Key:
Assay type in all cases: cell-based
human RBCs [1] = experiment: RBC density and morphology by May Grünwald-Giemsa staining and light microscopy
Method: (C). Cells were incubated in the presence or absence of 5-HT. The density of RBC suspension and their morphology were assessed by May Grünwald-Giemsa staining;
(§1) Cell culture. Drugs [serotonin (Catalog No. H9525), melatonin (Catalog No. M5250), pindolol (Catalog No. P0778) and indomethacin (Catalog No. 18280)] were all purchased from Sigma-Aldrich. They were added at the indicated concentrations at the beginning of cell incubation (Day 0). Cells were harvested at specific time-points and analyzed by flow cytometry (FACScan™, Becton Dickinson) according to forward and side scatters (FSC and SSC, respectively). FSC is proportional to cell size, while SSC is proportional to cell complexity, which may reflect hemoglobin content of RBCs. The relative proportions of viable and dead RBCs were calculated by setting appropriate regions on the dot plots. In some experiments, RBCs were sorted according to FSC and SSC. Cell density was checked routinely by inverted light microscopy, and cell morphology was assessed by May Grünwald-Giemsa staining followed by light microscopy.
To evaluate the morphology of the two populations of RBCs, these cells were sorted by flow cytometry according to their FSC/SSC characteristics, and stained by the May Grünwald-Giemsa method. […] Cells with intermediate amounts of hemoglobin (between normochromic and hypochromic) were also present in the R2 region (FIG. 2, upper right panel). […] At day 7, in the absence of 5-HT, fewer cells were present, and the majority of these cells were hypochromic with cytoplasmic inclusions (FIG. 3B, left panels).

[2] = system: human red blood cell (RBC); experiment: Human RBC survival in vitro in RPMI 1640, viable/dead cells by flow cytometry (FSC/SSC); settings: for protecting effect on RBCs (survival versus vehicle control): 100 μM, RPMI 1640; for RBC survival as compared to RBCs cultured in the presence of buffer only: 7 days at 37° C., 1, 10, 100 μM tested (FIG. 13)
Method: RBCs were incubated in vitro at 37° C., and cells were analyzed by flow cytometry for assessment of the relative proportions of dead and viable cells. Forward scatter (FSC)/side scatter (SSC) dot plots of RBCs incubated in the presence or absence of 5-HT (100 μM) are shown in (A) to (E) for the indicated time points. Two main regions of analysis are set, R1 (left box) and R2 (right box), corresponding to dead and viable RBCs, respectively. The proportion of viable cells remaining at each time-point is indicated next to the R2 region (upper right in the dot plots). (F) Typical concentration-dependent effects of 5-HT (0-100 μM) on RBCs incubated for different periods of time;
RBCs were incubated for various lengths of time in the RPMI 1640 medium at 37° C. (A), at room temperature (21 to 23° C.) (B), or at 4° C. (C). 5-HT (100 μM, black circles) or vehicle control (white circles) was added before incubation at Day 0, and cell viability was assessed by flow cytometry at several times as indicated;
RBCs were incubated for 7 days at 37° C. in the presence or absence of different concentrations of the indicated indole compounds (white bars =1 μM; grey bars=10 μM; black bars:100 μM). As a control, RBCs were incubated in the presence of the appropriate buffer (without the compounds). RBCs survival in the presence of a given compound is expressed as the percentage of survival relative to the control.
Red blood cells isolation. Venous blood was drawn from healthy volunteers, and RBCs were isolated by centrifugation at 800 rpm to remove platelet-rich plasma, and white blood cells. The resulting pellet of RBCs was washed three times in NaCl 0.9% by centrifugation at 3000 rpm. RBCs were incubated at 37° C., 5% CO2 in 24-well microplates at a concentration of 1x10^6 cells/ml in RPMI 1640 medium without phenol red containing HEPES/NaOH (pH 7.4) and penicillin (100 U/ml)/streptomycin ([…]).
as §1

human RBCs [3] = experiment: Survival of human RBCs cultured in AS-3 additive solution, flow cytometry; settings: 100 μM
Method: AS-3 is an additive solution commonly used for storage of RBCs. RBCs were incubated in home-made (A) and commercially available (B) AS-3 solution (Haemonetics, Catalog No. 0460a-00) for various lengths of time at 4° C. in the absence (white circles) or presence (100 μM, black circles) of 5-HT, and cell viability was assessed by flow cytometry at several times as indicated. The home-made AS-3 was prepared in sterile water as follows: Sodium chloride (NaCl, 2.35 g), D-Glucose (Dextrose, 5.5 g), Adenine (0.15 g), Citric Acid (0.21 g), Sodium Phosphate dibasic (Na2HPO4 anhydrous, 1.380 g) were dissolved in 500 ml of sterile water. The pH of the solution was adjusted at 7.39;
as §1, with “They were added at the indicated concentrations at the beginning of cell incubation (Day 0).” left out, “FSC is proportional to cell size, while SSC is proportional to cell complexity, which may reflect hemoglobin content of RBCs.” left out, “In some experiments, RBCs were sorted according to FSC and SSC.” left out
The effect of 5-HT on the survival of human RBCs cultured in AS-3 solution was assessed. […]

mouse RBCs = experiment: Survival of mouse RBCs cultured at 37° C., flow cytometry; settings: day 1 to day 7, 0-100 μM
Method: Mouse RBCs were cultured at 37° C. for the indicated periods of time, in the presence of increasing concentrations of 5-HT (0-100 μM). Cell viability was assessed by flow cytometry at day 1 (A), day 2 (B), day 3 (C), day 5 (D) and day 7 (E), and the percentage of viable cells (% of cells in R2) is indicated;
as §1, with “microscopy. […]” for “microscopy.”

With `NCCc1c[nH]c2ccc(O)cc12` [5-HT, serotonin] the “RBC morphology (normochromic / hypochromic)” value (human RBCs [1]; 91 days at 4° C.) was “normochromic red blood cells are observed”, the “RBC morphology (normochromic / hypochromic)” value (human RBCs [1]; day 7, 37° C.) was “the majority of these cells were normochromic” and the “number of cells remaining, as judged by cell density” value (human RBCs [1]; day 7, 37° C., versus absence of 5-HT) was “a greater number of cells remained”. For the same molecule, the “concentration giving optimal effect on RBC viability” value ([2]; 0-100 μM tested, 37° C., FIG. 1F) was 100 µM, the “protecting effect on RBCs (survival versus vehicle control)” value ([2]; 4° C.) was “is observed” and the “protecting effect on RBCs (survival versus vehicle control)” value ([2]; 37° C.) was “is observed”. The “percentage of viable RBCs as compared to controls without 5-HT” value ([2]; all time-points (day 0 to 21), 37° C., 5-HT 100 μM) was “higher”, the “protecting effect on RBCs (survival versus vehicle control)” value ([2]; room temperature (21-23° C.)) was “is observed” and the “survival of RBCs versus absence of 5-HT” value (human RBCs [3]; commercially available AS-3, 4° C.) was “increases the survival”. For the same molecule, the “survival of RBCs versus absence of 5-HT” value (human RBCs [3]; home-made AS-3, 4° C.) was “increases the survival” and the “proportion of viable mouse RBCs versus 5-HT-free cultures” value (mouse RBCs) was “higher”.

In the case of `COc1ccc2c(c1)c(CC(=O)O)c(C)n2C(=O)c1ccc(Cl)cc1` [indomethacin], the “RBC survival as compared to RBCs cultured in the presence of buffer only” value [2] is reported as “increased survival”.

For `COc1ccc2[nH]cc(CCNC(C)=O)c2c1` [melatonin], the “RBC survival as compared to RBCs cultured in the presence of buffer only” value [2] was “increased survival”.

For `CC(C)NCC(O)COc1cccc2[nH]ccc12` (centres unmarked) [pindolol], the “RBC survival as compared to RBCs cultured in the presence of buffer only” value [2] was “increased survival”.
